Here are results for 50 compounds from ChEMBL document CHEMBL1629525, “Synthesis and characterization of 1,3-dihydro-benzo[b][1,4]diazepin-2-one derivatives: Part 4. In vivo active potent and selective non-competitive metabotropic glutamate receptor 2/3 antagonists” (Bioorg Med Chem Lett, 2010).

≈ marks a conversion by molar mass, not a printed value. A value given as a limit tells only on which side of the number the result lay.

Series [1] has as its target T1, Metabotropic glutamate receptor 2 (Rattus norvegicus, UniProt P31421). Put plainly: Antagonist activity at recombinant rat mGluR2 expressed in forskolin-stimulated CHO cells assessed as inhibition of (1S,3R)-ACPD induced cAMP production. Format: functional, cell-based.
The target in series [2] is T1, Metabotropic glutamate receptor 2. In words: Partial displacement of [3H]LY354740 from recombinant rat mGluR2. For orientation: Displacement assays read how much labelled ligand stays bound in the presence of the test substance.
Series [3] addresses Metabotropic glutamate receptor 2 (Homo sapiens, UniProt Q14416). Put plainly: Antagonist activity at human mGluR2 receptor expressed in CHO cells assessed as inhibition of GIRK current. The format is functional, cell-based.
Series [4] concerns the target Metabotropic glutamate receptor 3 (Rattus norvegicus, UniProt P31422). In words: Antagonist activity at rat mGluR3 receptor expressed in CHO cells assessed as inhibition of GIRK current. Format: functional, cell-based.
For another series, the target named is Cytochrome P450 3A4 (Homo sapiens, UniProt P08684). In words: Inhibition of CYP3A4. The format is ADME.
Cytochrome P450 3A4, sequence (P08684 whole entry): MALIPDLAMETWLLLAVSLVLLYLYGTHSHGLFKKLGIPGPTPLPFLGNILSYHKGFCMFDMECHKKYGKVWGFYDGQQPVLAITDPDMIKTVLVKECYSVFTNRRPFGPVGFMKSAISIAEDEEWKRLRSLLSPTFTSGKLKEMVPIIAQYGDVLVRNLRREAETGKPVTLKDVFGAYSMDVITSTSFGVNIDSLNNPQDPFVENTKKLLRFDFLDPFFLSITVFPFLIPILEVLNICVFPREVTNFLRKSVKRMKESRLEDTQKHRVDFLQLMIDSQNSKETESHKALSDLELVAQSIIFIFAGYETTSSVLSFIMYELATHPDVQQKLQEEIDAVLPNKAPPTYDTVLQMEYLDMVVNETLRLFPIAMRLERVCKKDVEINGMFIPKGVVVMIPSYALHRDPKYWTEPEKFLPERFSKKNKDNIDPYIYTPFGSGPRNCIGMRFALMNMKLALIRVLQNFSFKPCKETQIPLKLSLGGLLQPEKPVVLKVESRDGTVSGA
The nature of series [5]: Thermodynamic solubility of the compound at pH 3. Format: physicochemical. The conditions noted are these: buffer.
Series [6] addresses T1, Metabotropic glutamate receptor 2. In words: Antagonist activity at rat mGluR2 receptor expressed in CHO cells assessed as inhibition of GIRK current. Format: functional, cell-based.
In another series the test system is Liver microsomes. Put plainly: Clearance in rat liver microsomes. Format: ADME, Microsome. For orientation: Microsomes from liver hold many membrane-bound enzymes, among them those of drug oxidation.

Metabotropic glutamate receptor 2 (Homo sapiens, UniProt Q14416), sequence (Q14416 whole entry): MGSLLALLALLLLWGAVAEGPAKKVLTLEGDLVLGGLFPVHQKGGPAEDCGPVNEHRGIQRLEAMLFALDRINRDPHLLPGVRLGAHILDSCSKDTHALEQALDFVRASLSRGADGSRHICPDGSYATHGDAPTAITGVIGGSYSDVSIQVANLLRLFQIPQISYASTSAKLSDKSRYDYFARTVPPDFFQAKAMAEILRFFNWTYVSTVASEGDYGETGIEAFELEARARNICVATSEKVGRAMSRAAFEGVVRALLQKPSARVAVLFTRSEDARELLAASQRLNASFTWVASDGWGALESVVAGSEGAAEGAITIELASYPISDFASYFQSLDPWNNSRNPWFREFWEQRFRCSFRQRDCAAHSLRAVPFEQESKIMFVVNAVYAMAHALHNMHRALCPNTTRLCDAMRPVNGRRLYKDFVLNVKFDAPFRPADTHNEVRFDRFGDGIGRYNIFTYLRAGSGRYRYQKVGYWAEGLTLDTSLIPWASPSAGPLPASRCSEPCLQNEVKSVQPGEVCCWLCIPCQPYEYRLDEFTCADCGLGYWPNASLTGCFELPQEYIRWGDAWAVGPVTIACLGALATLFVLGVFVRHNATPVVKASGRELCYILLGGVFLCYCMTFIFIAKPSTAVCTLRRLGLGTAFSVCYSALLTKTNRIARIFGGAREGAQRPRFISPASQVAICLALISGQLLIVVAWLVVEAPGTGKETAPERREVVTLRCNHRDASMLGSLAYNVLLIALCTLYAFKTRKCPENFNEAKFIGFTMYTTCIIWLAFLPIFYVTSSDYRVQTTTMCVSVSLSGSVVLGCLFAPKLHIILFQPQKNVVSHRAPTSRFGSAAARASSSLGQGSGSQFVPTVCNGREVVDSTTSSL
T1 sequence (P31421 whole entry): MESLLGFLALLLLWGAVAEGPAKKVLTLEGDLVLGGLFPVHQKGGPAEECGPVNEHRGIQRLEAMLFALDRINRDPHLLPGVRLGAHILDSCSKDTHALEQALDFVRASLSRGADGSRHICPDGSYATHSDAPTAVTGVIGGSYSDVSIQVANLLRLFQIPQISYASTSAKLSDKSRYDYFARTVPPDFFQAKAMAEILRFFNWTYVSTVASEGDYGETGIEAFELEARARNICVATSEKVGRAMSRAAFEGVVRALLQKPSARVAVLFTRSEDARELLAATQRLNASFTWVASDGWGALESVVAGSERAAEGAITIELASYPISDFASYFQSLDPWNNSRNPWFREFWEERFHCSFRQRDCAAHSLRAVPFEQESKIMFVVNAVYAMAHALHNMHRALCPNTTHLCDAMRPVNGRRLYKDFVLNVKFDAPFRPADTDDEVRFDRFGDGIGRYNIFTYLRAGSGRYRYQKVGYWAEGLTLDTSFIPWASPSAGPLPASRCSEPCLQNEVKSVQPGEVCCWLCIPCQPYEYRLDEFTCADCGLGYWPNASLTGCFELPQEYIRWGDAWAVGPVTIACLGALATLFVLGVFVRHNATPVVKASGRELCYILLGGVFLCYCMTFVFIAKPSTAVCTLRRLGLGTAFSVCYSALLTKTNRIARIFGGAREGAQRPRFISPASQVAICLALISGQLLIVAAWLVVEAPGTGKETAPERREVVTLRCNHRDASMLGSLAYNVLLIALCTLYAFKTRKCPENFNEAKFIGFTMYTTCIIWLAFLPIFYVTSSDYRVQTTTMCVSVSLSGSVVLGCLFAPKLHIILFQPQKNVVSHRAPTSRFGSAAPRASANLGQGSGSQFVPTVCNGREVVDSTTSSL
Metabotropic glutamate receptor 3, sequence (P31422 whole entry): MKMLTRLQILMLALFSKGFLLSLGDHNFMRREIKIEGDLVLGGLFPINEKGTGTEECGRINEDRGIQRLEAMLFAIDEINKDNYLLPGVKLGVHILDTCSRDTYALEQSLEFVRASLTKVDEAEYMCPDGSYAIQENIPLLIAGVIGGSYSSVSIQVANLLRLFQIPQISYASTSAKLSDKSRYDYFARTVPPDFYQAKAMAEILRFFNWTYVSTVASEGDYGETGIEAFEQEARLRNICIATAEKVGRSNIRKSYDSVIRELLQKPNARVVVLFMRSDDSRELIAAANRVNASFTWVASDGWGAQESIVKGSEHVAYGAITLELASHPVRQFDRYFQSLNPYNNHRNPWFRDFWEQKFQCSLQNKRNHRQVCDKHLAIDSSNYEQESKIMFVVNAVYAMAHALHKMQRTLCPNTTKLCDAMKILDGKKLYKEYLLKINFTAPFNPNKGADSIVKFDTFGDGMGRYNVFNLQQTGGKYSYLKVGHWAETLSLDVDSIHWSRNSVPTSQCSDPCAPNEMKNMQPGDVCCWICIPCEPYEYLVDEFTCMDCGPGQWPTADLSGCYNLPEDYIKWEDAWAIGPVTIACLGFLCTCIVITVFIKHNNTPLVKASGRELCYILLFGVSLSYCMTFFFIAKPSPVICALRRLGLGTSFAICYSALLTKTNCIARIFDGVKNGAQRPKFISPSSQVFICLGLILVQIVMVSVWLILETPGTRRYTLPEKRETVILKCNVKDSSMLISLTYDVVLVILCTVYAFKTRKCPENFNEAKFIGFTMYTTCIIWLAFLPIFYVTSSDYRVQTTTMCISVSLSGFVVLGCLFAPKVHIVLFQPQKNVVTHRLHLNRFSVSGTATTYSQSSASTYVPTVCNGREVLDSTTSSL

As a reminder, the IC50 is the concentration that gives 50% inhibition. For `Cc1cc(-c2cccc(C3=Nc4cc(C)c(C(F)(F)F)cc4NC(=O)C3)c2)on1`, the IC50 in series [1] was 9 nM; in series [2], 5 nM.

In the case of `Cc1cc(-c2cccc(C3=Nc4cc(C(F)(F)F)c(C(F)(F)F)cc4NC(=O)C3)c2)cc(C)n1`, the IC50 in series [1] and in series [2] was 7 nM throughout.

As for `Cc1cc2c(cc1C(F)(F)F)NC(=O)CC(c1cccc(-c3ccnc(-n4cccc4)c3)c1)=N2`, in series [2], the IC50 was 59 nM.

Consider `Cc1ccc2c(c1)NC(=O)CC(c1ccccc1)=N2`, for which the IC50 in series [2] worked out at 6400 nM.

`CCOc1cc2c(cc1C(F)(F)F)NC(=O)CC(c1cccc(-c3ccnc(C)c3)c1)=N2`: the IC50 in series [1] turned out to be 8 nM; in series [2], 6 nM; in series [3], 15 nM; in series [4] it was 3 nM.

As to `CCc1cc(-c2cccc(C3=Nc4cc(C)c(C(F)(F)F)cc4NC(=O)C3)c2)cc(C)n1`, the IC50 in series [1] worked out at 4 nM; in series [2] it was 2 nM.

As to `Cc1cc2c(cc1C(F)(F)F)NC(=O)CC(c1cccc(-c3cnccn3)c1)=N2`, the IC50 in series [1] was 16 nM; in series [2] it was 20 nM.

Regarding `Cc1cc2c(cc1C(F)(F)F)NC(=O)CC(c1cccc(-c3ccnc(N4CCOCC4)c3)c1)=N2`, the IC50 in series [2] amounted to 29 nM.

Consider `Cc1cc2c(cc1C(F)(F)F)NC(=O)CC(c1cccc(-c3ccnc(C#N)c3)c1)=N2`, for which the IC50 in series [1] came to 18 nM; in series [2], 12 nM.

Broadly, the thermodynamic solubility is solubility found after equilibrating the solid with the medium. On to `Cc1cc2c(cc1C(F)(F)F)NC(=O)CC(c1cccc(-c3ccncc3)c1)=N2`, for which the IC50 in series [1] was determined as 11 nM; in series [2] it was 4 nM; against Cytochrome P450 3A4, 200 nM. This compound also gave a solubility (thermodynamic) in series [5] of 5 µg/mL (≈ 12.6 µM).

`Cc1cc2c(cc1C(F)(F)F)NC(=O)CC(c1cccc(-n3ccnc3)c1)=N2`: on Cytochrome P450 3A4, the IC50 is < 100 nM.

With `Cc1cc2c(cc1C(F)(F)F)NC(=O)CC(c1cccc(-c3ccccn3)c1)=N2`, the figures for the IC50 in series [1] and in series [2] were 30 nM and 26 nM, respectively.

`Cc1nc(-c2cccc(C3=Nc4ccc(C(F)(F)F)cc4NC(=O)C3)c2)co1`: in series [2], the IC50 is 350 nM.

`Cc1cc2c(cc1C(F)(F)F)NC(=O)CC(c1cccc(-c3ccnc(CO)c3)c1)=N2`: the IC50 was 18 nM in series [1] and 13 nM in series [2].

With `O=C1CC(c2cccc(-c3ccncc3)c2)=Nc2ccc(Cl)cc2N1`, the IC50 amounted to 3 nM in series [1], 8 nM in series [2] and 10 nM in series [3].

`COCc1cc(-c2cccc(C3=Nc4cc(C)c(C(F)(F)F)cc4NC(=O)C3)c2)ccn1`: the figures for the half-maximal inhibitory concentration (IC50) in series [1] and in series [2] were 6 nM and 13 nM, respectively.

Consider `Cc1cc2c(cc1C(F)(F)F)NC(=O)CC(c1cccc(-c3cccnc3)c1)=N2`, for which the IC50 in series [1] was 3 nM; in series [2], 2 nM; against Cytochrome P450 3A4, 1800 nM.

`Cc1cc2c(cc1C(F)(F)F)NC(=O)CC(c1cccc(-c3ccnc(CN(C)C)c3)c1)=N2`: the IC50 in series [2] was determined as 274 nM.

On to `COc1cc(-c2cccc(C3=Nc4cc(C)c(C(F)(F)F)cc4NC(=O)C3)c2)ccn1`, for which the IC50 in series [1] was 16 nM; in series [2] it was 13 nM.

`Cc1cc2c(cc1C(F)(F)F)NC(=O)CC(c1cccc(-n3cncn3)c1)=N2`: the IC50 is 75 nM in series [1] and 8 nM in series [2].

For the compound `CCc1cc(-c2cccc(C3=Nc4cc(C)c(C(F)(F)F)cc4NC(=O)C3)c2)ccn1`, the figures for the IC50 in series [1] and in series [2] were 5 nM and 8 nM, respectively.

`Cc1cc2c(cc1C(F)(F)F)NC(=O)CC(c1cccc(-c3ccnc(Cc4ccccc4)c3)c1)=N2`: the results for the IC50 in series [1] and in series [2] were 5 nM and 16 nM, respectively.

As to `Cc1cc2c(cc1C(F)(F)F)NC(=O)CC(c1cccc(-c3ccnc(C(F)(F)F)c3)c1)=N2`, in series [2], the IC50 turned out to be 66 nM.

`Cc1cc2c(cc1C(F)(F)F)NC(=O)CC(c1cccc(-n3nncc3CO)c1)=N2`: the IC50 in series [2] was found to be 120 nM.

On to `CCOc1cc2c(cc1C(F)(F)F)NC(=O)CC(c1cccc(-c3ccncc3)c1)=N2`, for which the 50% inhibitory concentration (IC50) came to 8 nM in series [6]; 10 nM in series [1]; 4 nM in series [2]; 38 nM in series [3]; 6 nM in series [4].

Turning to `Cc1cc2c(cc1C(F)(F)F)NC(=O)CC(c1cccc(-c3ccnnc3)c1)=N2`, the IC50 worked out at 72 nM in series [1] and 18 nM in series [2].

Turning to `Cc1cc2c(cc1C(F)(F)F)NC(=O)CC(c1cccc(-c3ccc(C4CC4)nc3)c1)=N2`, the IC50 in series [1] stood at 20 nM; in series [2] it was 6 nM.

With `Cc1cc2c(cc1C(F)(F)F)NC(=O)CC(c1cccc(-c3ccnc(C(C)C)c3)c1)=N2`, the IC50 in series [1] was 10 nM; in series [2], 4 nM.

As for `Cc1cc2c(cc1C(F)(F)F)NC(=O)CC(c1cccc(-c3ccc(N)nc3)c1)=N2`, the IC50 in series [1] amounted to 160 nM; in series [2] it was 14 nM.

For `Cn1nccc1-c1cccc(C2=Nc3ccc(C(F)(F)F)cc3NC(=O)C2)c1`, the IC50 in series [1] came to 190 nM; in series [2], 39 nM.

On to `Cc1cc2c(cc1C(F)(F)F)NC(=O)CC(c1cccc(-c3ccnc(-c4ccccc4)c3)c1)=N2`, for which the IC50 in series [2] amounted to 118 nM.

For `Cc1cc(-c2cccc(C3=Nc4cc(C)c(C(F)(F)F)cc4NC(=O)C3)c2)cc(CO)n1`, the figures for the IC50 in series [1] and in series [2] were 15 nM and 14 nM, respectively.

In the case of `Cc1cc2c(cc1C(F)(F)F)NC(=O)CC(c1cccc(-c3ccc(N(C)C)nc3)c1)=N2`, the IC50 in series [2] was 86 nM.

On to `Cc1cc2c(cc1C(F)(F)F)NC(=O)CC(c1cccc(-c3ccc(C(C)C)nc3)c1)=N2`, for which the IC50 in series [1] and in series [2] was 10 nM each time.

Turning to `Cc1cc2c(cc1C(F)(F)F)NC(=O)CC(c1cccc(-c3ccnc(C(C)(C)O)c3)c1)=N2`, the IC50 is 14 nM in series [1] and 40 nM in series [2].

`Cc1cc(-c2cccc(C3=Nc4ccc(C(F)(F)F)cc4NC(=O)C3)c2)ccn1`: the IC50 is 36 nM in series [1], 18 nM in series [2], 25 nM in series [3] and 17 nM in series [4].

In the case of `O=C1CC(c2cccc(-c3ccncc3)c2)=Nc2ccc(C(F)(F)F)cc2N1`, the IC50 in series [6] stood at 101 nM; in series [1], 26 nM; in series [2], 10 nM; in series [3] it was 52 nM; in series [4] it was 29 nM.

Regarding `Cc1cc(-c2cccc(C3=Nc4cc(C)c(C(F)(F)F)cc4NC(=O)C3)c2)ccn1`, the IC50 in series [6] amounted to 13 nM; in series [1] it was 4 nM; in series [2], 4 nM; on Cytochrome P450 3A4 it was 1900 nM; in series [3] it was 41 nM; in series [4], 14 nM. For the same compound, in series [5], the thermodynamic solubility was determined as 45 µg/mL (≈ 110 µM). This compound also showed a CL with Liver microsomes of 0.8 mL/min/kg.

On to `Cc1cc2c(cc1C(F)(F)F)NC(=O)CC(c1cccc(-c3ccnc(C4CCCC4)c3)c1)=N2`, for which the results for the IC50 in series [1] and in series [2] were 7 nM and 10 nM, respectively.

Take `COCc1cc(-c2cccc(C3=Nc4cc(C)c(C(F)(F)F)cc4NC(=O)C3)c2)cc(C)n1`: the IC50 in series [1] was determined as 5 nM; in series [2], 8 nM.

Turning to `Cc1cc(-c2cccc(C3=Nc4cc(Cl)c(Cl)cc4NC(=O)C3)c2)ccn1`, the IC50 is 2 nM in series [1], 4 nM in series [2], 7 nM in series [3] and 30 nM in series [4].

With `COc1ccc(-c2cccc(C3=Nc4cc(C)c(C(F)(F)F)cc4NC(=O)C3)c2)cn1`, the IC50 in series [1] is 10 nM; in series [2] it was 5 nM.

Take `Cc1cc2c(cc1C(F)(F)F)NC(=O)CC(c1cccc(-c3cncnc3)c1)=N2`: the results for the IC50 in series [1] and in series [2] were 48 nM and 23 nM, respectively.

Take `Cc1cc2c(cc1C(F)(F)F)NC(=O)CC(c1cccc(-c3cccnn3)c1)=N2`: the IC50 in series [2] was 128 nM.

Regarding `Cc1cc2c(cc1C(F)(F)F)NC(=O)CC(c1cccc(-c3ccnc(C4CC4)c3)c1)=N2`, the figures for the IC50 in series [1] and in series [2] were 6 nM and 10 nM, respectively.

As to `O=C1CC(c2cccc(-n3ccnn3)c2)=Nc2ccc(-c3ccccc3F)cc2N1`, the IC50 in series [6] is 11 nM; in series [1], 27 nM; in series [2], 12 nM; in series [4], 33 nM.

In the case of `Cc1cc(-c2cccc(C3=Nc4cc(C)c(C(F)(F)F)cc4NC(=O)C3)c2)cc(C2CC2)n1`, the IC50 in series [1] worked out at 4 nM; in series [2], 2 nM.

On to `CCc1ccc(-c2cccc(C3=Nc4cc(C)c(C(F)(F)F)cc4NC(=O)C3)c2)cn1`, for which the IC50 in series [1] worked out at 18 nM; in series [2] it was 9 nM.

For `Cc1cc2c(cc1C(F)(F)F)NC(=O)CC(c1cccc(-c3ccncn3)c1)=N2`, the IC50 was determined as 50 nM in series [1] and 6 nM in series [2].

On to `Cc1ccc(-c2cccc(C3=Nc4cc(C)c(C(F)(F)F)cc4NC(=O)C3)c2)cn1`, for which the figures for the IC50 in series [1] and in series [2] were 5 nM and 13 nM, respectively.
